Measurements published in patent US9671412B2, “Beclin 1 phosphorylation” (Board of Regents, The University of Texas System, priority 2012, dated 2017).
Entries after “also recorded” stand apart in the source; their conditions may differ. One block for each molecule: values may come before it.

What was measured:
[1] = tested on: myr-Akt1-expressing Rat2 cell tumors; assay: Tumors of myr-Akt1-expressing Rat2 cells in NOD SCID mice; assay type: in vivo; conditions: co-expressed with myr-Akt1 in Rat2 cells
From the text: To examine the role of Akt-mediated Beclin 1 phosphorylation in Akt-driven tumorigenesis, we transduced Rat2 fibroblasts with myr-Akt1 (which transforms rat fibroblasts (15)) and either wild-type Beclin 1 or Beclin 1 phosphorylation site mutants. Myr-Akt1 suppressed autophagy in Rat2 fibroblasts, reduced co-immunoprecipitation of Class III PI3K Vps34 with Beclin 1, and decreased Beclin 1-associated lipid kinase activity. […] Expression of myr-Akt1 had minimal effects on the interaction of Beclin 1 AA and Vps34 or on the amounts of Beclin 1 AA-associated Vps34 activity. Thus, myr-Akt1 suppresses Beclin 1-associated Vps34 activity and autophagy in a manner that is partially reversed by a Beclin 1 mutant resistant to Akt-mediated phosphorylation.
All myr-Akt1-expressing Rat2 cells formed tumors in immunodeficient NOD SCID® mice, but tumor growth rate and tumor mass upon necropsy were less for cells expressing Beclin 1 AA than for cells expressing wild-type Beclin 1 or myr-Akt1 alone. Tumors expressing myr-Akt1 alone had numerous cells displaying p62 immunoreactivity (indicating autophagy suppression) whereas very few p62 immunoreactive cells were detected in tumors from cells expressing both myr-Akt1 and Beclin 1 AA. […] Tumors expressing active Akt alone or with Beclin 1 had higher mean mitotic counts (n=8.39; n=8.37, respectively) than tumors expressing myr-Akt1 and Beclin 1 AA (n=3.67) (P<0.0001). They also had increased Ki-67 labeling, and decreased TUNEL staining. Thus, the expression of a mutant of Beclin 1 that cannot be phosphorylated by Akt increases tumor cell autophagy, decreases tumor growth rate and size, decreases tumor cellular proliferation, and increases tumor cell death.

[2] = tested on: A549 cells (wild-type EGFR); assay: Autophagy in serum-starved A549 cells; assay type: cell-based, human; conditions: addition for 30 min
From the text: (§1) To evaluate whether EGFR activation inhibits autophagy, we used a human non-small cell lung carcinoma (NSCLC) cell line, A549, that express wild-type (WT) EGFR (VanMeter et al., 2008). We measured autophagy by examining the subcellular localization of a green fluorescent autophagy reporter protein, GFP-LC3, and by measuring levels of LC3-II, the autophagosome-associated lipidated form of LC3, and p62, an autophagic substrate (Mizushima et al., 2010).

[3] = tested on: MCF7 human breast carcinoma cells; assay: Basal autophagy (GFP-LC3) in transfected MCF7 cells; assay type: cell-based; conditions: lesser extent with Beclin 1 AA than with wild-type Beclin 1
From the text: We transfected MCF7 human breast carcinoma cells [which express low amounts of endogenous Beclin 1 (14)] with GFP-LC3 and wild-type Beclin 1 or Beclin 1 S295A or AA mutants. […] Thus, Akt inhibits basal autophagy both through Beclin 1 phosphorylation-dependent and independent mechanisms.

[4] = biological target: T1, GST-Akt1 (Homo sapiens, UniProt P31749); assay: In vitro phosphorylation of Beclin 1 S295 by GST-Akt1; assay type: biochemical; conditions: in vitro kinase reaction
T1 construct: GST
T1 sequence (P31749 whole entry): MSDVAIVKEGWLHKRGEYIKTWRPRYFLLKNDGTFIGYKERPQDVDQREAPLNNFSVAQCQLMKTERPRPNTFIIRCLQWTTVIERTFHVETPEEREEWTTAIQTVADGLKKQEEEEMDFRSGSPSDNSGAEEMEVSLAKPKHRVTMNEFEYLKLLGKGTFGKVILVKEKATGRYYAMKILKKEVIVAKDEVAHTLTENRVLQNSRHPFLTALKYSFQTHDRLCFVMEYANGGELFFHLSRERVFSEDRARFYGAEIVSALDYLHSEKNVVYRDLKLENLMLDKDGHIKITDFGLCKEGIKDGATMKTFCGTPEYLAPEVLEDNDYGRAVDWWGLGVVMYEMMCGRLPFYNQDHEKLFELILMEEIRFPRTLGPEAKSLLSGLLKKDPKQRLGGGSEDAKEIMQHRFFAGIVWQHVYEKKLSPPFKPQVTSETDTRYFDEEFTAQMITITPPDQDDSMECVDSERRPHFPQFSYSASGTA
From the text: (§2) We examined whether autophagy execution proteins could be targets of Akt. We focused on Beclin 1 because of its role in autophagy and tumor suppression (4).

[5] = tested on: mTOR; assay: Phospho-4E-BP1 (mTOR phosphorylation target) in HeLa cells; assay type: cell-based; conditions: including those expressing myr-Akt1
From the text: We investigated whether Akt inhibits autophagy by directly regulating the core autophagy machinery independently of mTOR. Expression of constitutively active myristoylated (5) and tagged Akt1 (Flag-tagged myr-Akt) in HeLa cells inhibited autophagy during growth in normal medium, in response to serum and amino acid starvation (a physiological inducer of autophagy), in response to treatment with an ATP-competitive inhibitor of mTOR, Torin1 (6), and in response to both starvation and Torin1 treatment. In all conditions, cells expressing myr-Akt1 had decreased numbers of puncta upon transfection with a fusion protein of green fluorescent protein with LC3 (GFP-LC3), a fluorescent marker of autophagosomes; increased amounts of p62 (a substrate that is degraded by autophagy); and increased amounts of the cytosolic non-lipidated form of LC3, LC3-I, and of total LC3 (7). Amounts of phospho-4E-BP1, a phosphorylation target of mTOR, were decreased in Torin1-treated cells, including those expressing myr-Akt1.

[6] = tested on: HeLa cells; assay: Autophagy induction in HeLa cells transfected with empty vector or WT EGFR; assay type: cell-based
From the text: We investigated the effects of active EGFR mutants that constitutively bind Beclin 1 on autophagy. […] In cells transfected with the active EGFR mutants, L858R or 4746-750, starvation and Torin1 induced lower levels of autophagy. […] Thus, active EGFR mutants suppress autophagy in a manner that is partially independent of mTOR.

[7] = tested on: Beclin 1 S295 / S234 phosphorylation; assay: Phosphorylation of endogenous Beclin 1 S295 and S234 in HeLa cells expressing myr-Akt1; assay type: cell-based
From the text: as §2

[8] = tested on: EGFR L858R/T790M (H1975 cells); assay: EGFR signalling, Beclin 1 interactome and Beclin 1 tyrosine phosphorylation in H1975 cells; assay type: cell-based, human
From the text: (§3) We investigated whether this mechanism underlies EGFR regulation of autophagy in NSCLC cells with activating mutations in EGFR. We used two NSCLC lines: HCC827 cells have the Δ746-750 EGFR activating mutation and are TKI-sensitive, and H1975 cells have the L858R EGFR activating mutation and are TKI-resistant due to a T790M mutation.

[9] = tested on: H1975 cells; assay: Autophagy (GFP-LC3 puncta, LC3-II, p62) in H1975 NSCLC cells; assay type: cell-based, human
From the text: as §1
as §3, with “mutation. First, we evaluated if TKI treatment induces autophagy; […]. Thus, TKI therapy disrupts the EGFR/Beclin 1 complex and induces autophagy in TKI-sensitive but not TKI-resistant cells.” for “mutation.”

[10] = tested on: EGFR Δ746-750 (HCC827 cells)
From the text: as §3

[11] = tested on: HCC827 cells; assay: Autophagy (GFP-LC3 puncta, LC3-II, p62) in HCC827 NSCLC cells; assay type: cell-based, human
From the text: as §3

[12] = tested on: HCC827 xenografts; assay: HCC827 tumor xenografts under TKI therapy; assay type: in vivo; conditions: control mice without induction or with induced WT Beclin 1
From the text: as §3

Molecule: Beclin 1 AA: Beclin 1 double mutation S234A/S295A, cannot be phosphorylated by Akt; expressed in cells
mean mitotic counts of tumors [1]: 3.67
tumors displaying degenerative features with numerous pyknotic nuclei [1]: 60%

Molecule: epidermal growth factor [EGF, growth factor ligand that triggers EGFR signaling]
autophagy induced by serum depletion [2]: partially reversed autophagy induction

GST-Akt1 phosphorylation of Beclin 1 S295 in vitro [4]: partially blocked
Molecule: NC1(c2ccc(-c3nc4ccn5c(=O)[nH]nc5c4cc3-c3ccccc3)cc2)CCC1 [MK-2206]
basal autophagy [3]: increased basal autophagy

Molecule: Beclin 1: wild-type human Beclin 1, essential autophagy and tumor suppressor protein; expressed in cells
mean mitotic counts of tumors [1]: 8.37

Molecule: CCC(=O)N1CCN(c2ccc(-n3c(=O)ccc4cnc5ccc(-c6cnc7ccccc7c6)cc5c43)cc2C(F)(F)F)CC1 [Torin1]
amounts of phospho-4E-BP1 [5]: decreased
autophagy [6]: induced autophagy
myr-Akt1-driven phosphorylation of endogenous Beclin 1 S295 and S234 [7]: not reversed

Molecule: C#Cc1cccc(Nc2ncnc3cc(OCCOC)c(OCCOC)cc23)c1 [erlotinib]
Beclin 1/EGFR interaction [8]: not
endogenous Beclin 1 Y233 phosphorylation ([8]; phosphospecific antibody): not
LC3-II conversion and p62 degradation ([9]; H1975 cells): not
GFP-LC3 puncta ([9]; H1975 cells stably transfected with GFP-LC3): not
Beclin 1/EGFR interaction [10]: blocked; also recorded: disruption of EGFR/Beclin 1 binding
Beclin 1 tyrosine phosphorylation [10]: decreased
EGFR phosphorylation [10]: EGFR dephosphorylation
endogenous Beclin 1 Y233 phosphorylation ([10]; phosphospecific antibody): blocked
LC3-II conversion and p62 degradation ([11]; HCC827 cells): demonstrated LC3-II conversion and p62 degradation
GFP-LC3 puncta ([11]; HCC827 cells stably transfected with GFP-LC3): increased GFP-LC3 puncta in a dose-dependent manner
time to complete regression of all tumor xenografts [12]: ≤ 14 days

GST-Akt1 phosphorylation of Beclin 1 S295 in vitro [4]: partially blocked
Molecule: CCN(CC)CCCCN1c2ccccc2Oc2ccc(Cl)cc21 [Akt inhibitor X]
